Data on 44 compounds can be found in patent US20250222044A1, “LIMOSILACTOBACILLUS REUTERI GOLDGUT-LR99 AND APPLICATION THEREOF” (priority 2024, published 2025).

Where a SMILES comes first, the peptide text is derived from it.

In the assay the test system is Limosilactobacillus reuteri GOLDGUT-LR99. Nature of the assay: Carbon source utilization and oxidation experiment (AN Biolog micro-pore plate). Particulars: substrate utilization by the strain; for Utilization (Y=OD590−OD750): 37° C. anaerobic culture for 24 hours. Type of assay: cell-based. The protocol: The AN Biolog micro-pore plate was used for measuring the utilization and oxidation conditions of different carbon sources of Limosilactobacillus reuteri GOLDGUT-LR99, the AN microplate used nutrients and biochemical reagents, and the method included the following steps: 1 mL of Limosilactobacillus reuteri GOLDGUT-LR99 bacterial liquid of the strain to be detected at the end of logarithmic growth was pipetted and centrifuged, then the supernatant was removed, the cells was washed three times with the seed liquid and suspended with 1 mL of the seed liquid, 50 μL of the suspension was taken and diluted in 10 mL of the seed liquid, the diluent was subpacked in a Biolog plate (100 μL/pore) after mixing uniformly, and the Biolog plate with the diluent was placed in 37° C. for anaerobic culture for 24 hours. After the culture was finished, OD590 and OD750 were detected by using microplate reader, the numerical values were recorded, and the utilization conditions of carbohydrate, organic acid and other substances of the Limosilactobacillus reuteri GOLDGUT-LR99 were calculated, wherein the calculation method was as follows: Y=OD590−OD750;

Consider 3-Methyl-D-4-glucose, for which the “Utilization (Y=OD590−OD750)” value is reported as “++ (when Y > 0.1, it is shown that the strain was able to effectively utilize this substance, marked as++)”.
The same measure, in the same setting: the entry for `OC[C@H]1O[C@@H](O[C@@H]2[C@@H](CO)OC(O)(CO)[C@H]2O)[C@H](O)[C@@H](O)[C@H]1O` (mixture of isomers) [Lactulose] is “− (when Y < 0.05, it is shown that the strain was not able to utilize this substance, marked as −)”.
For `CC(O)C(=O)O` (racemic) [D,L-Lactic acid], the “utilization effect (in words)” value is listed as “effectively utilize” and the “Utilization (Y=OD590−OD750)” value was “++ (when Y > 0.1, it is shown that the strain was able to effectively utilize this substance, marked as++)”.
For `O=P(O)(O)OCC(O)CO` (racemic) [D,L-α-Glycerophosphate], the “Utilization (Y=OD590−OD750)” value is given as “− (when Y < 0.05, it is shown that the strain was not able to utilize this substance, marked as −)”.
For `Nc1ncnc2c1ncn2[C@H]1C[C@H](O)[C@@H](CO)O1` [2′-Deoxyadenosine], the “Utilization (Y=OD590−OD750)” value is “− (when Y < 0.05, it is shown that the strain was not able to utilize this substance, marked as −)”.
For the compound `N#C[C@H](O[C@@H]1O[C@H](CO[C@@H]2O[C@H](CO)[C@@H](O)[C@H](O)[C@H]2O)[C@@H](O)[C@H](O)[C@H]1O)c1ccccc1` [Amygdalin], the “Utilization (Y=OD590−OD750)” value was “− (when Y < 0.05, it is shown that the strain was not able to utilize this substance, marked as −)”.
For `OC[C@H]1O[C@@H](Oc2ccc(O)cc2)[C@H](O)[C@@H](O)[C@@H]1O` [Arbutin], the “Utilization (Y=OD590−OD750)” value is “− (when Y < 0.05, it is shown that the strain was not able to utilize this substance, marked as −)”.
For the compound `OC[C@@H](O)C(O)[C@H](O)CO` [D-Arabinitol], the “Utilization (Y=OD590−OD750)” value was “− (when Y < 0.05, it is shown that the strain was not able to utilize this substance, marked as −)”.
For the compound `OC[C@H]1O[C@@H](O[C@H]2[C@H](O)[C@@H](O)[C@H](O)O[C@@H]2CO)[C@H](O)[C@@H](O)[C@@H]1O` [D-Cellobiose], the “Utilization (Y=OD590−OD750)” value is “++ (when Y > 0.1, it is shown that the strain was able to effectively utilize this substance, marked as++)”.
As to `O=C(CO)[C@@H](O)[C@H](O)[C@H](O)CO` [D-Fructose], the “utilization effect (in words)” value is on record as “better utilization effect” and the “Utilization (Y=OD590−OD750)” value is reported as “++ (when Y > 0.1, it is shown that the strain was able to effectively utilize this substance, marked as++)”.
Turning to `O=C[C@H](O)[C@@H](O)[C@@H](O)[C@H](O)CO` [D-Galactose], the “Utilization (Y=OD590−OD750)” value was “++ (when Y > 0.1, it is shown that the strain was able to effectively utilize this substance, marked as++)”.
Regarding `O=C[C@H](O)[C@@H](O)[C@@H](O)[C@H](O)C(=O)O` [D-Galacturonic acid], the “Utilization (Y=OD590−OD750)” value is “++ (when Y > 0.1, it is shown that the strain was able to effectively utilize this substance, marked as++)”.
As for `O=C(O)[C@@H](O)[C@@H](O)[C@H](O)[C@@H](O)C(=O)O` [D-Glucarate], the “utilization effect (in words)” value was “effectively utilize” and the “Utilization (Y=OD590−OD750)” value was “++ (when Y > 0.1, it is shown that the strain was able to effectively utilize this substance, marked as++)”.
On to `O=C1O[C@H](CO)[C@@H](O)[C@H](O)[C@H]1O` [D-Gluconolactone], for which the “Utilization (Y=OD590−OD750)” value is “++ (when Y > 0.1, it is shown that the strain was able to effectively utilize this substance, marked as++)”.
The same measure, in the same setting: the entry for `O=C(O)[C@H]1OC(O)[C@H](O)[C@@H](O)[C@@H]1O` (stereo partly drawn) [D-Glucoronate] is “++ (when Y > 0.1, it is shown that the strain was able to effectively utilize this substance, marked as++)”.
On the same count and under the same terms, the entry for `O=C(O)C[C@@H](O)C(=O)O` [D-Malic acid] is “− (when Y < 0.05, it is shown that the strain was not able to utilize this substance, marked as −)”; for `OC[C@@H](O)[C@@H](O)[C@H](O)[C@H](O)CO` [D-Mannitol] it is “+ (when 0.1 > Y > 0.05, it is shown that the strain was able to better utilize this substance, marked as +)”.
As for `OC[C@H]1O[C@@](CO)(O[C@H]2O[C@H](CO)[C@@H](O)[C@H](O)[C@H]2O)[C@@H](O[C@H]2O[C@H](CO)[C@@H](O)[C@H](O)[C@H]2O)[C@@H]1O` [D-Melezitose], the “Utilization (Y=OD590−OD750)” value is reported as “− (when Y < 0.05, it is shown that the strain was not able to utilize this substance, marked as −)”.
`OC[C@@H](O)[C@@H](O)[C@H](O)[C@@H](O)CO` [D-Sorbitol]: the “Utilization (Y=OD590−OD750)” value is listed as “++ (when Y > 0.1, it is shown that the strain was able to effectively utilize this substance, marked as++)”.
Still for that read-out and setting: the entry for `OC[C@H]1O[C@H](O[C@H]2O[C@H](CO)[C@@H](O)[C@H](O)[C@H]2O)[C@H](O)[C@@H](O)[C@@H]1O` [D-Trehalose] is “− (when Y < 0.05, it is shown that the strain was not able to utilize this substance, marked as −)”; for `CC(C)[C@@H](C)/C=C/[C@@H](C)[C@H]1CC[C@H]2C3=CC=C4C[C@@H](O)CC[C@]4(C)[C@H]3CC[C@]12C` [Ergosterol] it is “++ (when Y > 0.1, it is shown that the strain was able to effectively utilize this substance, marked as++)”; for `CC(=O)O` [Ethanoic acid] it is “− (when Y < 0.05, it is shown that the strain was not able to utilize this substance, marked as −)”.
In the case of `O=CO` [Formic acid], the “Utilization (Y=OD590−OD750)” value is reported as “− (when Y < 0.05, it is shown that the strain was not able to utilize this substance, marked as −)”.
Take `O=C(O)/C=C/C(=O)O` [Fumaric acid]: the “Utilization (Y=OD590−OD750)” value is on record as “− (when Y < 0.05, it is shown that the strain was not able to utilize this substance, marked as −)”.
On to `O=P(O)(O)O[C@H]1O[C@H](CO)[C@@H](O)[C@H](O)[C@H]1O` [Glucose-1-phosphate], for which the “Utilization (Y=OD590−OD750)” value was “+ (when 0.1 > Y > 0.05, it is shown that the strain was able to better utilize this substance, marked as +)”.
Same read-out and setting: the entry for `O=C[C@H](O)[C@@H](O)[C@H](O)[C@H](O)COP(=O)(O)O` [Glucose-6-phosphate] is “++ (when Y > 0.1, it is shown that the strain was able to effectively utilize this substance, marked as++)”; for `OCC(O)CO` [Glycerol] it is “− (when Y < 0.05, it is shown that the strain was not able to utilize this substance, marked as −)”; for `NCC(=O)N[C@@H](CCC(N)=O)C(=O)O` [Glycyl-L-glutamine] (H-Gly-Gln-OH) it is “− (when Y < 0.05, it is shown that the strain was not able to utilize this substance, marked as −)”.
`CSCC[C@H](NC(=O)CN)C(=O)O` [Glycyl-L-methionine]: the “Utilization (Y=OD590−OD750)” value is reported as “− (when Y < 0.05, it is shown that the strain was not able to utilize this substance, marked as −)”.
Still for that read-out and setting: the entry for `NCC(=O)N1CCC[C@H]1C(=O)O` [Glycylprolline] (H-Gly-Pro-OH) is “− (when Y < 0.05, it is shown that the strain was not able to utilize this substance, marked as −)”; for `O=CC(=O)O` [Glyoxylic acid] it is “+ (when 0.1 > Y > 0.05, it is shown that the strain was able to better utilize this substance, marked as +)”.
On to `OC[C@H]1O[C@@H](n2cnc3c(O)ncnc32)[C@H](O)[C@@H]1O` [Inosine], for which the “Utilization (Y=OD590−OD750)” value is recorded as “− (when Y < 0.05, it is shown that the strain was not able to utilize this substance, marked as −)”.
Regarding `C=C(CC(=O)O)C(=O)O` [Itaconic acid], the “Utilization (Y=OD590−OD750)” value is given as “− (when Y < 0.05, it is shown that the strain was not able to utilize this substance, marked as −)”.
In the case of `C[C@H](N)C(=O)O` [L-Alanine], the “Utilization (Y=OD590−OD750)” value is on record as “− (when Y < 0.05, it is shown that the strain was not able to utilize this substance, marked as −)”.
Consider `C[C@H](N)C(N)=O` [L-Alanineamide], for which the “Utilization (Y=OD590−OD750)” value is given as “++ (when Y > 0.1, it is shown that the strain was able to effectively utilize this substance, marked as++)”.
Still for that read-out and setting: the entry for `C[C@H](N)C(=O)N[C@@H](Cc1c[nH]cn1)C(=O)O` [L-Alanyl-histidine] (H-Ala-His-OH) is “− (when Y < 0.05, it is shown that the strain was not able to utilize this substance, marked as −)”.
Same read-out and setting: the entry for `N[C@@H](CCC(=O)O)C(=O)O` [L-Glutamic acid] is “− (when Y < 0.05, it is shown that the strain was not able to utilize this substance, marked as −)”.
Same read-out and setting: then `C[C@H](O)C(=O)O` [L-Lactic acid], with “++ (when Y > 0.1, it is shown that the strain was able to effectively utilize this substance, marked as++)”.
In the case of `O=C(O)C[C@H](O)C(=O)O` [L-Malic acid], the “Utilization (Y=OD590−OD750)” value is on record as “− (when Y < 0.05, it is shown that the strain was not able to utilize this substance, marked as −)”.
`CSCC[C@H](N)C(=O)O` [L-Methionine]: the “Utilization (Y=OD590−OD750)” value is “− (when Y < 0.05, it is shown that the strain was not able to utilize this substance, marked as −)”.
Take `N[C@@H](Cc1ccccc1)C(=O)O` [L-Phenylalanine]: the “Utilization (Y=OD590−OD750)” value was “− (when Y < 0.05, it is shown that the strain was not able to utilize this substance, marked as −)”.
`C[C@H](O)[C@H](O)[C@@H](O)[C@@H](O)C=O` [L-Rhamnose]: the “Utilization (Y=OD590−OD750)” value is given as “++ (when Y > 0.1, it is shown that the strain was able to effectively utilize this substance, marked as++)”.
For `N[C@@H](CO)C(=O)O` [L-Serine], the “Utilization (Y=OD590−OD750)” value is “− (when Y < 0.05, it is shown that the strain was not able to utilize this substance, marked as −)”.
Turning to `C[C@@H](O)[C@H](N)C(=O)O` [L-Threonine], the “Utilization (Y=OD590−OD750)” value was “− (when Y < 0.05, it is shown that the strain was not able to utilize this substance, marked as −)”.
